Assay results from paper PMC6271944 (Molecules, 2014).

Key:
[1] = system: UGT1A1; design: dose or concentration left out as unconfirmed; conditions: cited from earlier work
[2] = molecular target: T1, CYP2C8 (Homo sapiens, UniProt P10632); experiment: CYP inhibition in human liver microsomes, substrate cocktail, LC-MS/MS (paclitaxel); type: in vitro ADME; conditions: metabolite 6α-hydroxypaclitaxel, read-out: IC50 for HLM, CYP2C8
T1 construct: Pooled human liver microsomes (HLM, LOT 32556) were purchased from BD Gentest Corporation; tissue BD Gentest Corporation LOT 32556; host or cells: pooled human liver microsomes
T1 sequence (P10632 1-490): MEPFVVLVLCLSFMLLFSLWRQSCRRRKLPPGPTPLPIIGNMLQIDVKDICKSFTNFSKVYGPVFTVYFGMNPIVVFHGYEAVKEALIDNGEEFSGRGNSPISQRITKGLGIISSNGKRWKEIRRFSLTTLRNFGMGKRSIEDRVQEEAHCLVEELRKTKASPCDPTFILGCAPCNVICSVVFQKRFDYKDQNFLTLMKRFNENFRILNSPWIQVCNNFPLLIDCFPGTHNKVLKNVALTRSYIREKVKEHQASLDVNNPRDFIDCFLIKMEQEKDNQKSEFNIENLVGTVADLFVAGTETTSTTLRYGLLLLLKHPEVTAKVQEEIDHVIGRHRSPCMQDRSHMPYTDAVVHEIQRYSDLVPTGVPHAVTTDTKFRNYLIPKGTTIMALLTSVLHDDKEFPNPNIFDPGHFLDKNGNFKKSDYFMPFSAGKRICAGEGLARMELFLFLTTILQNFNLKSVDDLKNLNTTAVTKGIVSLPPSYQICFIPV
Excerpt: (§1) Positive controls (furafyline for CYP1A2, montelukast for CYP2C8, sulfaphenazole for CYP2C9, S-(+)-N-3-benzylnirvanol for CYP2C19, quinidine for CYP2D6, ketoconazole for CYP3A4) and specific substrates (phenacetin for CYP1A2, paclitaxel for CYP2C8, diclofenac for CYP2C9, S-mephenytoin for CYP2C19, dextromethorphan for CYP2D6, midazolam for CYP3A4) are consistent with our previous papers. The substrates were used at concentrations approximately equal to their respective Michaelis-Menten constant (Km) values: 10 μM phenacetin, 5 μM paclitaxel, 5 μM diclofenac, 200 μM S-mephenytoin, 5 μM dextromethorphan, and 2 μM midazolam. NADP^+ was added after a 15 min preincubation of all other components at 37 °C. After a given incubation time (30 min), the reactions were terminated by addition of 60 μL ice-cold acetonitrile containing gemfibrozil and buspirone as internal standards. Incubation samples were stored at −80 °C until used in liquid chromatography-tandem mass spectrometry (LC-MS/MS) analysis. The mixture was centrifuged at 3,500 rpm for 5 min. The supernatant was mixed with equal volume of a 1:1 mixture of methanol and water and 20 μL of the final mixture was used for LC-MS/ MS analysis. […]
(§2) The CYP inhibition potential were evaluated by measuring the formation of one or more metabolites of the test substrates. […]

[3] = molecular target: T2, CYP1A2 (Rattus norvegicus, UniProt P04799); conditions: 30 mg/kg; cited from earlier work
T2 sequence (P04799 1-513): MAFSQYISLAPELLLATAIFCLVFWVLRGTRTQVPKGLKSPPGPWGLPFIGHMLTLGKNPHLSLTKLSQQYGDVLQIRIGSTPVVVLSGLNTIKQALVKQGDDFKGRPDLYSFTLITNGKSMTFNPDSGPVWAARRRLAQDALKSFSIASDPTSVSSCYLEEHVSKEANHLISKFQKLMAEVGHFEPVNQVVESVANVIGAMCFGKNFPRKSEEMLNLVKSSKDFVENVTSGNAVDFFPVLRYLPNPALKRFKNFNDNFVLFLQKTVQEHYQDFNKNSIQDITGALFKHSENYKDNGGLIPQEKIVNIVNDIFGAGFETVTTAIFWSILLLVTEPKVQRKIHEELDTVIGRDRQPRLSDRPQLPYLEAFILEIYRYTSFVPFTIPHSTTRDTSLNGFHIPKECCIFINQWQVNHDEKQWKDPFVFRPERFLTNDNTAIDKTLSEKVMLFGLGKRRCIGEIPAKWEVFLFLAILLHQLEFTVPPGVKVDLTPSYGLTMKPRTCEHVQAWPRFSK

[4] = molecular target: T3, CYP2C11 (Rattus norvegicus, UniProt P08683); experiment: CYP inhibition in rat liver microsomes, substrate cocktail, LC-MS/MS (diclofenac); type: in vitro ADME; conditions: pH 7.4, probe diclofenac 5 μM, read-out: IC50 for RLM, CYP2C11 (table row CYP2C9)
T3 sequence (P08683 1-500): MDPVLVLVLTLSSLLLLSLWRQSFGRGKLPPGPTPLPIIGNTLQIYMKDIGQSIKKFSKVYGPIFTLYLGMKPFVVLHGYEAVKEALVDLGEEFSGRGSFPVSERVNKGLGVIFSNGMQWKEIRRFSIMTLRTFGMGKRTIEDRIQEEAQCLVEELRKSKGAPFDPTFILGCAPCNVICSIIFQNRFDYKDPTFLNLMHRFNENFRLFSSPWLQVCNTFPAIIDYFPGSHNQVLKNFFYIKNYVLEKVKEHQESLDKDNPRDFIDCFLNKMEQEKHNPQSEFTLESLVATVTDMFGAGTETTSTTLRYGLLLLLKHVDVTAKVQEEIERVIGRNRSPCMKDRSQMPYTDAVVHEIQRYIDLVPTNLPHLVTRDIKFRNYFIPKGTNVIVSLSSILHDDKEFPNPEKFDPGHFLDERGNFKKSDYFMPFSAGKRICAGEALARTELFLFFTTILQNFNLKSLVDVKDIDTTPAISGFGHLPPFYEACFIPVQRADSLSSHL
Excerpt: as §1, §2

In the case of O=C(O)[C@H]1O[C@@H](Oc2cc3oc(-c4ccc(O)cc4)cc(=O)c3c(O)c2O)[C@H](O)[C@@H](O)[C@@H]1O [scutellarin, Scutellarin], the “inhibition towards the activity of UGT1A1” value [1] is given as 48.8%, the IC50 [2] is given as greater than 100 µM and the “inhibition of CYP1A2 activity in whole animal studies” value [3] is given as “weakly inhibited”. For the same molecule, the IC50 at 30 min [4] was greater than 100 µM.
